Experiment [1] is filed under the species Homo sapiens. Nature of the experiment: Kinetic constant for purified human milk alpha(1,3/4) fucosyltransferase.
The species named for experiment [2] is Homo sapiens. Nature of the experiment: Potency against purified human milk alpha(1,3/4) fucosyltransferase; IA inactive.

Activity calls are given as the source filed them. The rule behind the calls is not given here.

Take `COC(=O)CCCCCCCCOC1OC(CO)C(SC2OC(CO)C(O)C(O)C2O)C(O)C1NC(C)=O` (configuration not stated): in the experiment listed under Homo sapiens [1], the Km is 230 µM.
Turning to `COC(=O)CCCCCCCCOC1OC(CO)C(OC2SC(CO)C(O)C(O)C2O)C(O)C1NC(C)=O` (configuration not stated), in the experiment listed under Homo sapiens [2], the Potency entry was “inactive”.

For orientation: Km means the concentration of substrate that gives half-maximal velocity.
